From ChEMBL document CHEMBL1135199, “Structure-activity relationships of non-imidazole H(3) receptor ligands. Part 2: binding preference for D-amino acids motifs” (Bioorg Med Chem Lett, 2002) come the findings set out here.

A short description of data set [1]: Oral bioavailability in rat (dose 5 mg/kg p.o.). It counts as ADME, organism-based. Particulars: in vivo.
A further data set has as its target Histamine H2 receptor (Homo sapiens, UniProt P25021). The experiment in a line: Binding affinity towards Histamine H2 receptor from human membranes.
The target of a further data set is Histamine H1 receptor (Homo sapiens, UniProt P35367). The experiment in a line: Binding affinity towards Histamine H1 receptor of human membranes.
Histamine H1 receptor, sequence (P35367 whole entry): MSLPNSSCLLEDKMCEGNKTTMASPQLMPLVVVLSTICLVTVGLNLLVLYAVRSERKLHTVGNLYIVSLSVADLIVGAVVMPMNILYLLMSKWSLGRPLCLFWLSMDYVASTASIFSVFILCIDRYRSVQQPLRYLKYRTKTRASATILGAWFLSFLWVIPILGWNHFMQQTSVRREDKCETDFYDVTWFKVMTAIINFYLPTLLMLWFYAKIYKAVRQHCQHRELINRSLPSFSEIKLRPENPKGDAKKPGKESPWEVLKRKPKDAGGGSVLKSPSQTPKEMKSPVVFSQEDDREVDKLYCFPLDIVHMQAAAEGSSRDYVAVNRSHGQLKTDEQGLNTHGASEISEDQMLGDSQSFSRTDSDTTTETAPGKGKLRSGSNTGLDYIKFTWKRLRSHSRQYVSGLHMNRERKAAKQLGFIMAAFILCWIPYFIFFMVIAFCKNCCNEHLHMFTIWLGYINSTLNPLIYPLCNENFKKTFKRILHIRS
The target in data set [2] is Histamine H3 receptor (Rattus norvegicus, UniProt Q9QYN8). The experiment in a line: Binding affinity towards Histamine H3 receptor of rat cortical membranes.
Histamine H3 receptor (Rattus norvegicus, UniProt Q9QYN8), sequence (Q9QYN8 whole entry): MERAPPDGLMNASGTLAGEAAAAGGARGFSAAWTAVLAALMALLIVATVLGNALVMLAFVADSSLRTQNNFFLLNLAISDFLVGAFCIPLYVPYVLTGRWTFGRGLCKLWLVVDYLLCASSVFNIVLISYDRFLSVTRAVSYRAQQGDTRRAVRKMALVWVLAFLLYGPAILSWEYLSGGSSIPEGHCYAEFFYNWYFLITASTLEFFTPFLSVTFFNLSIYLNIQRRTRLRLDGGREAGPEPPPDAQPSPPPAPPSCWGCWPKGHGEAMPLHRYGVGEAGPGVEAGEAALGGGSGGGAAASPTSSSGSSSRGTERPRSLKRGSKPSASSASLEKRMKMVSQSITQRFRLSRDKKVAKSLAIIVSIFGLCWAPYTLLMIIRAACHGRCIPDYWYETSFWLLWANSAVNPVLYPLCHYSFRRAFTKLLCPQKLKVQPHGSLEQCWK
For data set [3], the target named is Histamine H3 receptor (Rattus norvegicus) (UniProt Q9QYN8). The experiment in a line: In vitro histamine H3 receptor antagonist activity was determined by K+-evoked depolarization- induced release of [3H]histamine from rat synaptosomes. In kind it is functional, subcellular. The note with it: Brain.
Histamine H3 receptor (Rattus norvegicus), sequence (Q9QYN8 whole entry): as above
Data set [4] concerns the target Histamine H3 receptor (Cavia porcellus, UniProt Q9JI35). The experiment in a line: Tested in vitro for histamine H3 receptor mediate inhibition of neurogenic contractions in guinea pig isolated ileum assay. It counts as functional, tissue-based. The note with it: read-out: pA2 (converted).

Histamine H2 receptor, sequence (P25021 whole entry): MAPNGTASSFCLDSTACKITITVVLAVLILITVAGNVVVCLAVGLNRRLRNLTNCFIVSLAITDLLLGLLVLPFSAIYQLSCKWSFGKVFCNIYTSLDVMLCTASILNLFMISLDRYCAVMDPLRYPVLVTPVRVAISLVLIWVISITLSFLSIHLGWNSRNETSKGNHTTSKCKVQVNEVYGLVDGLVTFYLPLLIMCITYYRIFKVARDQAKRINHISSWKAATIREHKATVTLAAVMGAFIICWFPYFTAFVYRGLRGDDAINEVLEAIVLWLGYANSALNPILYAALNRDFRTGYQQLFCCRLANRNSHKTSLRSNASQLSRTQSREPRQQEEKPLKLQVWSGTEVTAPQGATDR
Histamine H3 receptor (Cavia porcellus, UniProt Q9JI35), sequence (Q9JI35 whole entry): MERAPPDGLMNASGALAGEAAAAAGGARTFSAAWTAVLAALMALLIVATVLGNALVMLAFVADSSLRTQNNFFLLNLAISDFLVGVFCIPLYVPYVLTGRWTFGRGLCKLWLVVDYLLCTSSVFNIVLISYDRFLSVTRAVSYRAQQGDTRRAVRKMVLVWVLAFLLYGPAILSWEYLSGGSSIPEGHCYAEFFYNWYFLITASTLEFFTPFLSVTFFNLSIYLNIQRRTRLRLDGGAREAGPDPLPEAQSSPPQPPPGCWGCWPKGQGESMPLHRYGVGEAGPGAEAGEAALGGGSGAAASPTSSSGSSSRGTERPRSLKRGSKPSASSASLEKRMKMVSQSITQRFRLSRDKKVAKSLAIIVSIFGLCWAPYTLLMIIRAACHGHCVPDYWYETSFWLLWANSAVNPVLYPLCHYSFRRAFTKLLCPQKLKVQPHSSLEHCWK

As for `CCCCCC(=O)c1ccc(OCCCN2CCN(C(=O)OCC)CC2)cc1`, the bioavailability in data set [1] was 0%.

With `NCCC(=O)N1CCN(CCCOc2ccc(C(=O)C3CC3)cc2)CC1`, the Ki at Histamine H2 receptor was 100 µM; on Histamine H1 receptor, 28.2 µM; at Histamine H3 receptor [2], 0.000501 µM. Also, in data set [1], the bioavailability is 46%.

As for `C[C@@H](N)C(=O)N1CCN(CCCOc2ccc(C(=O)C3CC3)cc2)CC1`, the Ki was 70.8 µM on Histamine H2 receptor, 69.2 µM at Histamine H1 receptor and 0.00126 µM on Histamine H3 receptor [2]. In data set [3], this compound showed a pKb of 8.75. In data set [1], this compound gave a bioavailability of 83%. For the same compound, the Kb at Histamine H3 receptor [4] was 0.105 µM.

A word on the bioavailability: it is the share of a dose that reaches the circulation, judged against a reference dose that is usually intravenous. Low values mean little systemic uptake, high ones much systemic uptake. The Ki is a dissociation constant, usually derived from enzyme kinetics or from competition with a known ligand. A higher Ki goes with lower affinity. By pKb is commonly meant −log10 of the Kb, conventionally taken in molar units.
